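Cultured in 96-well plates, cells were exposed to test compound for 48 hours across five concentrations. At the GI50, growth is halved. The concentration for full growth arrest is given as TGI.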
What was measured:
Assay in all cases: NCI-60 cell line screen, 48 h
[1] = tested on: MALME-3M melanoma
[2] = tested on: SK-MEL-28 melanoma
[3] = tested on: OVCAR-3 ovarian
[4] = tested on: SF-539 CNS
[5] = tested on: LOX IMVI melanoma
[6] = tested on: CAKI-1 renal
[7] = tested on: MCF7 breast
[8] = tested on: NCI-H522 lung
[9] = tested on: NCI-H23 lung
[10] = tested on: SF-268 CNS

Compound	GI50 [1]	TGI [1]	GI50 [2]	TGI [2]	GI50 [3]	TGI [3]	GI50 [4]	TGI [4]	GI50 [5]	TGI [5]	GI50 [6]	TGI [6]	GI50 [7]	TGI [7]	GI50 [8]	TGI [8]	GI50 [9]	TGI [9]	GI50 [10]	TGI [10]
Cc1cccnc1CNC1CC(NCc2ncccc2C)CC(NCc2ncccc2C)C1 (centres undefined)	2840 nM	9460 nM	3170 nM	12400 nM	3100 nM	8940 nM	2920 nM	9380 nM	1920 nM	3960 nM	4840 nM	21800 nM	2390 nM	5210 nM	2690 nM	12200 nM	2800 nM	6820 nM	1990 nM	4050 nM
CNCCOc1nc2c3cnccc3cc(-c3cc(OC)c(OC)c(OC)c3)c2c2ccncc12	39.2 nM	194 nM	125 nM	525 nM	90.6 nM	464 nM	43.8 nM	225 nM	13.1 nM	94.4 nM	39 nM	292 nM	< 10 nM	275 nM	66.6 nM	661 nM	27.8 nM	161 nM	33 nM	623 nM
COc1cc2c3c(c1O)C1(C=CC(=O)C=C1)CC3N(C)CC2 (centres undefined)	–	24800 nM	–	26000 nM	–	22900 nM	–	28800 nM	–	9280 nM	–	35500 nM	–	20500 nM	–	7210 nM	–	31500 nM	–	34600 nM
CC[C@H](C)[C@H](NC(=O)C12CC(NC(C)=O)(C1)C2)C(=O)N(C)[C@H](C[C@@H](OC(C)=O)c1nc(C(=O)N[C@@H](Cc2ccccc2)C[C@H](C)C(=O)OC)cs1)C(C)C	–	> 16700 nM	1810 nM	> 16700 nM	49.4 nM	569 nM	438 nM	1150 nM	229 nM	> 16700 nM	11200 nM	> 16700 nM	48.9 nM	> 16700 nM	55.1 nM	450 nM	650 nM	> 16700 nM	809 nM	> 16700 nM
